Earlier results, collected in patent publication US11839662B2, “Compositions for neuromodulation of mosquito feeding behavior and uses thereof” (University of Central Florida Research Foundation, Inc., priority 2017, dated 2023).

Row | SMILES | effect on oviposition and larval hatch rate (Anopheles gambiae) | repellant and larvicidal effect (mosquitoes)
1 | Clc1cccc(Cl)c1N=C1NCCN1 [Clonidine] | decrease oviposition and larval hatch rate | –
2 | CC1(C)CCC[C@]2(C)[C@@H](C=O)C(C=O)=CC[C@@H]12 [Polygodial] | – | repellant ability in mosquitoes and act as a larvacide
